Assay results: PubChem BioAssay AID1963866 (Molecular Pharmacology Branch, DTP, NCI, 2024)

System: PDC KRAS tumor spheroids with HUVEC/MSC, viability
Assay: Anticancer human tumor 349418-098-R-PDC patient-derived lung adenocarcinoma cell line growth inhibition [KRAS2]
Settings: for IC50: curve of first compound; for viability, T/C: stronger effect = lower value
Outline: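 KRAS-mutant tumor cells were grown as spheroids with HUVEC endothelial cells and human MSCs as stroma. Targeted agents were tested alone and with KRAS pathway inhibitors. Doses started at or near clinical Cmax, or 10 microM, descending half-log.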

[1] = second compound 0.1 µM, first compound 0.000316 µM
[2] = second compound 0.1 µM, first compound 0.001 µM
[3] = second compound 0.1 µM, first compound 0.00316 µM
[4] = second compound 0.1 µM, first compound 0.01 µM
[5] = second compound 0.1 µM, first compound 0.0316 µM
[6] = second compound 0.316 µM, first compound 0.000316 µM
[7] = second compound 0.316 µM, first compound 0.001 µM
[8] = second compound 0.316 µM, first compound 0.00316 µM
[9] = second compound 0.316 µM, first compound 0.01 µM
[10] = second compound 0.316 µM, first compound 0.0316 µM
[11] = second compound 1 µM, first compound 0.000316 µM
[12] = second compound 1 µM, first compound 0.001 µM
[13] = second compound 1 µM, first compound 0.00316 µM
[14] = second compound 1 µM, first compound 0.01 µM
[15] = second compound 1 µM, first compound 0.0316 µM
[16] = second compound 3.16 µM, first compound 0.000316 µM
[17] = second compound 3.16 µM, first compound 0.001 µM
[18] = second compound 3.16 µM, first compound 0.00316 µM
[19] = second compound 3.16 µM, first compound 0.01 µM
[20] = second compound 3.16 µM, first compound 0.0316 µM
[21] = second compound 10 µM, first compound 0.000316 µM
[22] = second compound 10 µM, first compound 0.001 µM
[23] = second compound 10 µM, first compound 0.00316 µM
[24] = second compound 10 µM, first compound 0.01 µM
[25] = second compound 10 µM, first compound 0.0316 µM
[26] = second compound 0.1 µM, first compound 0.1 µM
[27] = second compound 0.316 µM, first compound 0.1 µM
[28] = second compound 1 µM, first compound 0.1 µM
[29] = second compound 3.16 µM, first compound 0.1 µM
[30] = second compound 10 µM, first compound 0.1 µM
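Also: spheroids exposed to compounds for seven days before readout.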

In the case of `CC(=O)Nc1cccc(-n2c(=O)n(C3CC3)c(=O)c3c(Nc4ccc(I)cc4F)n(C)c(=O)c(C)c32)c1` + COc1cc2nc(C)nc(NC(C)c3cc(N)cc(C(F)(F)F)c3)c2cc1OC1CCOC1, the IC50 (second compound 0.1 µM) is reported as < 0.1 nM, the IC50 (second compound 0.316 µM) is reported as < 0.1 nM and the IC50 (second compound 1 µM) is reported as < 0.1 nM. For the same compound, the IC50 (second compound 3.16 µM) was < 0.1 nM, the IC50 (second compound 10 µM) was < 0.1 nM and the viability, T/C (second compound 0.1 µM, first compound 0.0001 µM) was 26.5%. For the same compound, the viability, T/C [1] was 12.7%, the viability, T/C [2] was 8.13% and the viability, T/C [3] was 7.1%. The viability, T/C [4] was 6.58%, the viability, T/C [5] was 5.51% and the viability, T/C (second compound 0.316 µM, first compound 0.0001 µM) was 19.8%. For the same compound, the viability, T/C [6] was 10.8%, the viability, T/C [7] was 8.06% and the viability, T/C [8] was 7.58%. The viability, T/C [9] was 6.23%, the viability, T/C [10] was 4.76% and the viability, T/C (second compound 1 µM, first compound 0.0001 µM) was 18%. The viability, T/C [11] was 8.51%, the viability, T/C [12] was 7.77% and the viability, T/C [13] was 6.73%. It also gave a viability, T/C [14] of 5.93%, a viability, T/C [15] of 4.86% and a viability, T/C (second compound 3.16 µM, first compound 0.0001 µM) of 14.4%. For the same compound, the viability, T/C [16] was 11%, the viability, T/C [17] was 8.06% and the viability, T/C [18] was 5.6%. The viability, T/C [19] was 5.05%, the viability, T/C [20] was 4.65% and the viability, T/C (second compound 10 µM, first compound 0.0001 µM) was 5.99%. For the same compound, the viability, T/C [21] was 4.73%, the viability, T/C [22] was 4.46% and the viability, T/C [23] was 3.12%. The viability, T/C [24] was 4.29% and the viability, T/C [25] was 3.2%.

`CC(C)n1nc(-c2ccc3oc(N)nc3c2)c2c(N)ncnc21` + COc1cc2nc(C)nc(NC(C)c3cc(N)cc(C(F)(F)F)c3)c2cc1OC1CCOC1 gave an IC50 (second compound 0.1 µM) of 1.14 nM, an IC50 (second compound 0.316 µM) of 0.791 nM and an IC50 (second compound 1 µM) of 0.969 nM. For the same compound, the IC50 (second compound 3.16 µM) was 1.27 nM, the IC50 (second compound 10 µM) was < 0.316 nM and the viability, T/C [1] was 118%. For the same compound, the viability, T/C [2] was 54.2%, the viability, T/C [3] was 16.5% and the viability, T/C [4] was 10.9%. The viability, T/C [5] was 9.94%, the viability, T/C [26] was 7.92% and the viability, T/C [6] was 106%. For the same compound, the viability, T/C [7] was 35.6%, the viability, T/C [8] was 15.3% and the viability, T/C [9] was 8.46%. For the same compound, the viability, T/C [10] was 8.96%, the viability, T/C [27] was 8.23% and the viability, T/C [11] was 102%. The viability, T/C [12] was 48.5%, the viability, T/C [13] was 16.2% and the viability, T/C [14] was 9.11%. It also gave a viability, T/C [15] of 8.55%, a viability, T/C [28] of 7.48% and a viability, T/C [16] of 99.7%. The viability, T/C [17] was 58.4%, the viability, T/C [18] was 18.1% and the viability, T/C [19] was 8.93%. The viability, T/C [20] was 8.73%, the viability, T/C [29] was 7.6% and the viability, T/C [21] was 34.2%. It also gave a viability, T/C [22] of 11.4%, a viability, T/C [23] of 4.75% and a viability, T/C [24] of 5.13%. The viability, T/C [25] was 4.36% and the viability, T/C [30] was 5.51%.

Compound `COC(=O)c1ccc2c(C(=Nc3ccc(N(C)C(=O)CN4CCN(C)CC4)cc3)c3ccccc3)c(O)[nH]c2c1` + COc1cc2nc(C)nc(NC(C)c3cc(N)cc(C(F)(F)F)c3)c2cc1OC1CCOC1 has an IC50 (second compound 0.1 µM) of 1640 nM, an IC50 (second compound 0.316 µM) of 1050 nM and an IC50 (second compound 1 µM) of 1370 nM. The IC50 (second compound 3.16 µM) was 587 nM, the IC50 (second compound 10 µM) was < 31.6 nM and the viability, T/C [5] was 113%. The viability, T/C [26] was 97.2%, the viability, T/C (second compound 0.1 µM, first compound 0.316 µM) was 76.1% and the viability, T/C (second compound 0.1 µM, first compound 1 µM) was 78.8%. The viability, T/C (second compound 0.1 µM, first compound 3.16 µM) was 8.68%, the viability, T/C (second compound 0.1 µM, first compound 10 µM) was 15.6% and the viability, T/C [10] was 91.2%. The viability, T/C [27] was 121%, the viability, T/C (second compound 0.316 µM, first compound 0.316 µM) was 83% and the viability, T/C (second compound 0.316 µM, first compound 1 µM) was 56.8%. For the same compound, the viability, T/C (second compound 0.316 µM, first compound 3.16 µM) was 7.24%, the viability, T/C (second compound 0.316 µM, first compound 10 µM) was 13.5% and the viability, T/C [15] was 88.9%. For the same compound, the viability, T/C [28] was 103%, the viability, T/C (second compound 1 µM, first compound 0.316 µM) was 90.5% and the viability, T/C (second compound 1 µM, first compound 1 µM) was 64.7%. For the same compound, the viability, T/C (second compound 1 µM, first compound 3.16 µM) was 9.57%, the viability, T/C (second compound 1 µM, first compound 10 µM) was 11.1% and the viability, T/C [20] was 66.5%. The viability, T/C [29] was 92.8%, the viability, T/C (second compound 3.16 µM, first compound 0.316 µM) was 78.2% and the viability, T/C (second compound 3.16 µM, first compound 1 µM) was 25.8%. The viability, T/C (second compound 3.16 µM, first compound 3.16 µM) was 5.92%, the viability, T/C (second compound 3.16 µM, first compound 10 µM) was 0.55% and the viability, T/C [25] was 41.8%. It also gave a viability, T/C [30] of 28%, a viability, T/C (second compound 10 µM, first compound 0.316 µM) of 36.7% and a viability, T/C (second compound 10 µM, first compound 1 µM) of 11.3%. The viability, T/C (second compound 10 µM, first compound 3.16 µM) was 1.15% and the viability, T/C (second compound 10 µM, first compound 10 µM) was 0.2%.
